Drawing on PubChem BioAssay AID328 (DTP/NCI, 2004), this text covers T/C for 17 compounds.

Values joined by “and” are separate entries in the source; they are usually repeats but may differ in a detail not shown here. Identical values can stand only once. Inconclusive results and toxic doses are left out.

This assay has as its system BDF1 mice, P388 leukemia ip, median survival T/C. In words: NCI In Vivo Anticancer Drug Screen. Data for tumor model P388 Leukemia (intraperitoneal) in B6D2F1 (BDF1) mice. To be noted: endpoint: median survival time, higher = longer survival. The method, boiled down:
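Mice carrying the transplantable tumour receive compound or vehicle. Survival is followed in each arm, and the treated measure is divided by the vehicle measure.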

[1] abbreviates: dose: 6.25 mg/kg/injection, schedule: Q01DX009 (ip), vehicle: saline with Tween-80.
The mark [2] stands for this setting: dose: 12.5 mg/kg/injection, schedule: Q01DX009 (ip), vehicle: saline with Tween-80.
The mark [3] stands for this setting: dose: 25.0 mg/kg/injection, schedule: Q01DX009 (ip), vehicle: saline with Tween-80.
Where [4] appears, read: dose: 100.0 mg/kg/injection, schedule: Q01DX009 (ip), vehicle: saline with Tween-80.
The mark [5] stands for this setting: dose: 100.0 mg/kg/injection, schedule: Q04DX003 (ip), vehicle: saline with Tween-80.
Setting [6] is: dose: 200.0 mg/kg/injection, schedule: Q01DX009 (ip), vehicle: saline with Tween-80.
[7] abbreviates: dose: 200.0 mg/kg/injection, schedule: Q04DX003 (ip), vehicle: saline with Tween-80.
[8] abbreviates: dose: 400.0 mg/kg/injection, schedule: Q04DX003 (ip), vehicle: saline with Tween-80.
Setting [9] is: dose: 50.0 mg/kg/injection, schedule: Q01DX009 (ip), vehicle: saline with Tween-80.
The mark [10] stands for this setting: dose: 100.0 mg/kg/injection, schedule: Q01DX009 (ip), vehicle: saline.
Setting [11] is: dose: 200.0 mg/kg/injection, schedule: Q01DX009 (ip), vehicle: saline.
The mark [12] stands for this setting: dose: 400.0 mg/kg/injection, schedule: Q01DX009 (ip), vehicle: saline.

In the case of `CN=C1C=C(NC)C(F)(F)C1(F)F`, the T/C reads like this: under setting [1], 95 % of control; under setting [2], 100 % of control; (dose: 12.5 mg/kg/injection, schedule: Q04DX003 (ip), vehicle: Klucel (hydroxypropylcellulose) (HPC)) 100 % of control; under setting [3], 100 % of control; (dose: 25.0 mg/kg/injection, schedule: Q04DX003 (ip), vehicle: Klucel (hydroxypropylcellulose) (HPC)) 100 % of control.
With `O=C1NNC(c2ccccc2)C1(Cl)Cl` (centres undefined), the T/C is, setting by setting: under setting [2], 114 % of control; under setting [3], 99 % of control.
For the compound `CCO/C=C/C(=O)NC(=O)OCC`, the T/C runs as follows: under setting [4], 98 % of control; under setting [5], 95 % of control; under setting [6], 107 % of control; under setting [7], 95 % of control; (dose: 400.0 mg/kg/injection, schedule: Q01DX009 (ip), vehicle: saline with Tween-80) 109 % of control; under setting [8], 90 % of control.
In the case of `CCCCCCC(=O)/C=C/c1cc(OC)ccc1OC`, the T/C runs as follows: under setting [2], 100 % of control; under setting [3], 95 % of control; under setting [9], 104 % of control; under setting [4], 104 % of control.
As for `CO[C@H]1C[C@H](O[C@H]2CC[C@]3(C=O)[C@H]4CC[C@]5(C)[C@@H](C6=CC(=O)OC6)CC[C@]5(O)[C@@H]4CC[C@]3(O)C2)O[C@H](C)[C@H]1O[C@@H]1O[C@H](CO[C@@H]2O[C@H](CO)[C@@H](O)[C@H](O)[C@H]2O)[C@@H](O)[C@H](O)[C@H]1O`, the T/C by setting is: (dose: 0.5 mg/kg/injection, schedule: Q01DX010 (ip), vehicle: saline) 115 % of control; (dose: 1.0 mg/kg/injection, schedule: Q01DX010 (ip), vehicle: saline) 110 % of control.
Regarding `COc1ccc([C@@H]2c3cc4c(cc3C[C@H]3COC(=O)[C@@H]32)OCO4)cc1OC`, the T/C is 104 % of control under setting [1], 116 % of control under setting [2] and 121 % of control under setting [3].
Turning to `Cc1cc(N)no1`, the T/C is 92 % of control under setting [10]; 104 % of control (dose: 100.0 mg/kg/injection, schedule: Q04DX003 (ip), vehicle: saline); 96 % of control under setting [11]; 95 % of control (dose: 200.0 mg/kg/injection, schedule: Q04DX003 (ip), vehicle: saline); 92 % of control under setting [12]; 100 % of control (dose: 400.0 mg/kg/injection, schedule: Q04DX003 (ip), vehicle: saline).
Turning to `Clc1nn2nnnc2c2ccccc12`, the T/C runs as follows: (dose: 10.0 mg/kg/injection, schedule: Q01DX009 (ip), vehicle: saline with Tween-80) 102 % of control; (dose: 20.0 mg/kg/injection, schedule: Q01DX009 (ip), vehicle: saline with Tween-80) 122 % of control; (dose: 37.5 mg/kg/injection, schedule: Q01DX009 (ip), vehicle: saline with Tween-80) 91 % of control.
Regarding `CS(=O)(=O)CC(O)(c1ccc(Cl)cc1)c1ccccn1` (centres undefined), the T/C runs as follows: under setting [9], 91 % of control; under setting [4], 91 % of control; under setting [6], 97 % of control.
As for `CCOC(=O)C(Cc1ccc(N(CCCl)CCCl)cc1)NC(=O)C(Cc1ccc([N+](=O)[O-])cc1)NC(C)=O` (centres undefined), the T/C was 105 % of control (dose: 5.0 mg/kg/injection, schedule: Q04DX003 (ip), vehicle: other); 96 % of control (dose: 10.0 mg/kg/injection, schedule: Q04DX003 (ip), vehicle: other); 99 % of control (dose: 20.0 mg/kg/injection, schedule: Q04DX003 (ip), vehicle: other); 99 % of control (dose: 40.0 mg/kg/injection, schedule: Q04DX003 (ip), vehicle: other).
For `O=C(N/N=C/c1ccc(Cl)cc1Cl)c1ccccc1`, the T/C was 110 % of control (dose: 50.0 mg/kg/injection, schedule: Q01DX009 (ip), vehicle: Klucel (hydroxypropylcellulose) (HPC)); 110 % of control (dose: 100.0 mg/kg/injection, schedule: Q01DX009 (ip), vehicle: Klucel (hydroxypropylcellulose) (HPC)); 95 % of control (dose: 200.0 mg/kg/injection, schedule: Q01DX009 (ip), vehicle: Klucel (hydroxypropylcellulose) (HPC)).
Consider `CN(C)C(=S)NCc1ccccc1`, for which the T/C was 109 % of control under setting [9], 100 % of control under setting [4] and 100 % of control under setting [6].
Regarding `CC12CCC3C(CCC4CC5(CCC43C)CO5)C1CCC2=O` (centres undefined), the T/C under setting [5] was 103 % of control, the T/C under setting [7] was 103 % of control and the T/C under setting [8] is 98 % of control.
On to `CN[C@H]1CC[C@]23C[C@]24CC[C@]2(C)[C@@H]([C@H](C)N(C)C)CC[C@@]2(C)[C@@H]4CC[C@H]3C1(C)C`, for which the T/C reads like this: (dose: 2.6 mg/kg/injection, schedule: Q01DX010 (ip), vehicle: saline) 90 % of control; (dose: 4.0 mg/kg/injection, schedule: Q01DX010 (ip), vehicle: saline) 100 % of control; (dose: 6.6 mg/kg/injection, schedule: Q01DX010 (ip), vehicle: saline) 118 % of control; (dose: 8.8 mg/kg/injection, schedule: Q01DX010 (ip), vehicle: carboxymethylcellulose (CMC)) 100 % of control; (dose: 10.0 mg/kg/injection, schedule: Q01DX010 (ip), vehicle: saline) 100 % of control; (dose: 13.3 mg/kg/injection, schedule: Q01DX010 (ip), vehicle: carboxymethylcellulose (CMC)) 105 % of control. The T/C was 113 % of control (dose: 16.0 mg/kg/injection, schedule: Q01DX010 (ip), vehicle: saline); 115 % of control (dose: 20.0 mg/kg/injection, schedule: Q01DX010 (ip), vehicle: carboxymethylcellulose (CMC)); 90 % of control (dose: 26.0 mg/kg/injection, schedule: Q01DX010 (ip), vehicle: saline); 94 % of control (dose: 30.0 mg/kg/injection, schedule: Q01DX010 (ip), vehicle: carboxymethylcellulose (CMC)); 94 % of control (dose: 45.0 mg/kg/injection, schedule: Q01DX010 (ip), vehicle: carboxymethylcellulose (CMC)).
In the case of `O=C1Cc2ccc3c(c2O1)C(=O)c1ccccc1C3=O`, the T/C by setting is: (dose: 100.0 mg/kg/injection, schedule: Q04DX002 (ip), vehicle: saline with Tween-80) 106 % of control; (dose: 200.0 mg/kg/injection, schedule: Q04DX002 (ip), vehicle: saline with Tween-80) 100 % of control.
As for `OC1OCCOC1O` (centres undefined), the T/C (dose: 17.8 mg/kg/injection, schedule: Q01DX009 (ip), vehicle: saline) is 101 % of control; the T/C (dose: 26.6 mg/kg/injection, schedule: Q01DX009 (ip), vehicle: saline) was 112 % of control; the T/C (dose: 40.0 mg/kg/injection, schedule: Q01DX009 (ip), vehicle: saline) is 110 % of control; the T/C (dose: 65.0 mg/kg/injection, schedule: Q01DX009 (ip), vehicle: saline) was 121 % of control; the T/C under setting [10] is 166 % of control; the T/C (dose: 150.0 mg/kg/injection, schedule: Q01DX009 (ip), vehicle: saline) is 169 % of control. The T/C is 166 % of control (dose: 178.0 mg/kg/injection, schedule: Q01DX009 (ip), vehicle: saline); 166 % of control under setting [11]; 165 % of control (dose: 266.0 mg/kg/injection, schedule: Q01DX009 (ip), vehicle: saline); 157 % of control and 161 % of control and 168 % of control under setting [12].
As for `Cc1ccc(S(=O)(=O)OC2CCN(C)CC2)cc1`, the T/C is 100 % of control (dose: 3.0 mg/kg/injection, schedule: Q04DX003 (ip), vehicle: saline); 95 % of control (dose: 6.0 mg/kg/injection, schedule: Q04DX003 (ip), vehicle: saline); 100 % of control (dose: 12.0 mg/kg/injection, schedule: Q04DX003 (ip), vehicle: saline); 100 % of control (dose: 25.0 mg/kg/injection, schedule: Q04DX003 (ip), vehicle: saline).
